Assay results: PubChem BioAssay AID504497 (Sanford-Burnham Center for Chemical Genomics, 2011)

Biological target: Sentrin-specific protease 7 (Homo sapiens) (UniProt Q9BQF6)
Test: inhibition of human SENP7 cleavage activity – biochemical, luminescence, SAR follow-up (AID 504497)
Conditions: recombinant SENP7, Z-RLRGG-aminoluciferin luminescence

Chain of Sentrin-specific protease 7 (Homo sapiens) (Q9BQF6 706-1050 limits assumed): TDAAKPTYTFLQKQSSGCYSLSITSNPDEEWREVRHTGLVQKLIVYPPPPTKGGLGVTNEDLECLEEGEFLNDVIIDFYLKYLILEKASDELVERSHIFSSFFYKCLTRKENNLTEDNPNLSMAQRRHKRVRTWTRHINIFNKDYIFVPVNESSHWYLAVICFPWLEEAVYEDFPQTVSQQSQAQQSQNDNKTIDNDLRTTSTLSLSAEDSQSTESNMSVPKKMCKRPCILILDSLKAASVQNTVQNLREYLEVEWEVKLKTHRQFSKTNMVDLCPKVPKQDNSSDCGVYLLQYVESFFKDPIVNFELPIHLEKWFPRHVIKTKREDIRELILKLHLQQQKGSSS

- IC50: 5.66 µM
SMILES: N#Cc1c(NC(=O)CSc2ncn[nH]2)sc2c1CCCCC2
